Columns and labels:
Type in all cases: cell-based
[1] = biological target: T1, GIRK2 (Mus musculus, UniProt P48542); experiment: two-electrode voltage clamp in Xenopus oocytes, homomeric GIRK2 co-expressed with Gβγ
T1 construct: gene Kcnj6

[2] = biological target: T2, GIRK2 (Mus musculus, UniProt P48542, I82L); experiment: two-electrode voltage clamp in Xenopus oocytes, […] compound
T2 construct: gene Kcnj6

[3] = biological target: T3, GIRK4 (Rattus norvegicus, UniProt P48548); experiment: two-electrode voltage clamp in Xenopus oocytes, homomeric GIRK4 co-expressed with Gβγ
T3 construct: gene Kcnj5

[4] = biological target: T4, GIRK4 (Rattus norvegicus, UniProt P48548, E147Q); experiment: two-electrode voltage clamp in Xenopus oocytes, […] compound
T4 construct: gene Kcnj5

[5] = biological target: T1, GIRK2; experiment: two-electrode voltage clamp in Xenopus oocytes, GIRK2+Gβγ, […] compound
[6] = biological target: T3, GIRK4; experiment: two-electrode voltage clamp in Xenopus oocytes, GIRK4+Gβγ, […] compound

T3 sequence (P48548 whole entry): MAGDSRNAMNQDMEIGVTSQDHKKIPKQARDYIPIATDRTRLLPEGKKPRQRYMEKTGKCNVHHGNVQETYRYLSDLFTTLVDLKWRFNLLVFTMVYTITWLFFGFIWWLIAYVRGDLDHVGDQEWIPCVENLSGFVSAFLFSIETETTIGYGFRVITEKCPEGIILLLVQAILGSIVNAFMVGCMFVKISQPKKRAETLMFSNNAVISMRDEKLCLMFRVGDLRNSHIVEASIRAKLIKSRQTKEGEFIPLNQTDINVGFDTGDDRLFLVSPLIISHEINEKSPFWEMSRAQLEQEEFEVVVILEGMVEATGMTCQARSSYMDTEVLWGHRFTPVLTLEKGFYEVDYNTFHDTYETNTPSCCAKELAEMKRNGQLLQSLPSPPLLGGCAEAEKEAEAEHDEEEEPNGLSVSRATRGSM
T3 sequence (P62871 2-340 partner): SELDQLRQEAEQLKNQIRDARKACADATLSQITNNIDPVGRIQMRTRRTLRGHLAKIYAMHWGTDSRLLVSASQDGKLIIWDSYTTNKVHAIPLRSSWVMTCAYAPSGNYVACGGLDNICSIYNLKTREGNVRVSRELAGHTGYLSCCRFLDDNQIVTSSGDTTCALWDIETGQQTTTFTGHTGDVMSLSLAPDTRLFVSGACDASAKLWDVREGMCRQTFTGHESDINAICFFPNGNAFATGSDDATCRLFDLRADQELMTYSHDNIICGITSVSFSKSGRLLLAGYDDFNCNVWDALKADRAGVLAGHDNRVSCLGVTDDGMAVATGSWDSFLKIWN
T3 sequence (P63212 2-68 partner): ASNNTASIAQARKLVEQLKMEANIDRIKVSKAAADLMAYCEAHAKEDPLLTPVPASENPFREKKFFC
T1 sequence (P48542 whole entry): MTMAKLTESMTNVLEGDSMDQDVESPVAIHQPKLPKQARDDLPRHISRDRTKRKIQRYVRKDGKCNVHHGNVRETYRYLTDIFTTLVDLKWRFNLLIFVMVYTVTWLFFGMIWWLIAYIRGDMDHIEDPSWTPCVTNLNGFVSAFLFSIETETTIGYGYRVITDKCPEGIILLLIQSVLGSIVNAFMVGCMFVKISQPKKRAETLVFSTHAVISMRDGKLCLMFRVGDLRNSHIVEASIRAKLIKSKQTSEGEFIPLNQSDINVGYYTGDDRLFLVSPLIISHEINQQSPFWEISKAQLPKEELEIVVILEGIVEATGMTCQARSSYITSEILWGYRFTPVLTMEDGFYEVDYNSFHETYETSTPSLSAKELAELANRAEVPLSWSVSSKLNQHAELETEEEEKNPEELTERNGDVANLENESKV
T1 sequence (P62871 2-340 partner): as the sequence (P62871 2-340 partner) above
T1 sequence (P63212 2-68 partner): as the sequence (P63212 2-68 partner) above
T4 sequence (P48548 whole entry E147Q): as the sequence (P48548 whole entry) above, with E147Q counted along it
T4 sequence (P62871 2-340 partner): as the sequence (P62871 2-340 partner) above
T4 sequence (P63212 2-68 partner): as the sequence (P63212 2-68 partner) above
T2 sequence (P48542 whole entry I82L): as the sequence (P48542 whole entry) above, with I82L counted along it
T2 sequence (P62871 2-340 partner): as the sequence (P62871 2-340 partner) above
T2 sequence (P63212 2-68 partner): as the sequence (P63212 2-68 partner) above

| inhibition at 100 µM [5] [%] | inhibition at 100 µM [6] [%] | Structure (SMILES) | IC50 [1] [µM] | inhibition at 100 µM [2] [%] | IC50 [3] [µM] | two-electrode voltage clamp in Xenopus oocytes, 100 μM compound [4] |
| --- | --- | --- | --- | --- | --- | --- |
|  |  | CN(C)CCN(C)CCc1ccc(Cl)c(Cl)c1 [BD1047] | 75.4 ± 9.7 | 61 ± 1.9 | 17.4 ± 3.7 | It was observed that GIRK4 E147Q maintained the strong inhibition as WT |
| 31.1 ± 12 | 61.4 ± 2.6 | CN1CCN(CCc2ccc(Cl)c(Cl)c2)CC1 [BD1063] |  |  |  |  |

— paper PMC11031820, “Structural determinants of the direct inhibition of GIRK channels by Sigma-1 receptor antagonist” (The Journal of Biological Chemistry, 2024)
